# Test results as given in paper PMC2775811 (The Journal of neuroscience : the official journal of the …, 2009).
# What was measured:
# Hsp70 = Hsp70 (Homo sapiens, UniProt P0DMV8); assay: malachite green ATPase assay, 8-point dose dependence; format: biochemical
# Hsc70 = Hsc70 (Homo sapiens, UniProt P11142); assay: […]-1H HSQC-TROSY NMR titration, […]-labelled apo-Hsc70; format: binding
SMILES,IC50 (Hsp70) [µM],Kd (Hsc70) [µM]
"O=c1c(O)c(-c2cc(O)c(O)c(O)c2)oc2cc(O)cc(O)c12 [MY, myricetin]",12,–
"CN(C)c1ccc2nc3ccc(=[N+](C)C)cc-3sc2c1 [MB, methylene blue]",83,~1
"CNc1ccc2nc3ccc(N)cc3[s+]c2c1 [AC, azure C]",11,–
